# According to patent EP0070171A1, “Novel piperidine derivatives, processes for preparation thereof and pharmaceutical compositions containing same” (KYOWA HAKKO KOGYO CO., LTD, priority 1981, dated 1983):
# Legend:
# [1] = system: spontaneously hypertensive rats; experiment: Hypotensive activity in spontaneously hypertensive rats (Experiment 1, tail artery plethysmography); assay type: in vivo; conditions: maximum reduction after administration versus pressure before administration; oral, 3 mg/100 g body weight, suspended in 0.3% (W/V) CMC; SHR 15 weeks old, five rats per group
# Procedure: This experiment was conducted according to the procedure described in "Spontaneously Hypertensive Rats (SHR) guidelines for Breeding, Care and Use" (published by SHR Conference) (1976) p.ll.
# Five spontaneously hypertensive rats (15 weeks old, 180 mmHg or more in blood pressure) were used as one group. A test compound was suspended in 0.3% (W/V) CMC aqueous solution in a concentration of 3 mg/ml, and orally administered to the rats in a dose of 3 mg/100 g body weight. Changes in blood pressure were measured according to the method of tail artery plethysmography (see the literature cited above). The maximum reduction (mmHg) in blood pressure after the administration on the basis of the pressure before the administration is shown in Table 6.
# [2] = Acute oral toxicity in mice (Experiment 2, deaths counted after 7 days); conditions: mouse, in vivo, in aqueous physiological sodium chloride, doses 300 mg/kg or further 200, 100 or 1000 mg/kg, observation for 7 days, three or four mice per group, read-out: Dose of half being died
# Procedure: Three or four male dd-strain mice (weight 18-20g) were used as one group.
# Each of the compounds was added to aqueous physiological sodium chloride, and the mixture was orally administered to the mice in a dose of 300 mg/kg or further 200, 100 or 1000 mg/kg. After the observation for 7 days, the number of deaths were counted.
SMILES,Reduction in blood pressure (mmHg) [1],LD50 at 168 h [2]
"COc1cc(C(O)CN2CCC3(CC2)OC(=O)Nc2ccccc23)cc(OC)c1OC (stereo not shown) [Compound 32, l'-[2-(3,4,5-trimethoxyphenyl)-2-hydroxyethyl]-(2-oxo-3,4-dihydro-2H-1,3-benzoxazine-4-spiro-4'-piperidine)]",79 mmHg,
"COc1ccc(C(O)CN2CCC3(CC2)OC(=O)Nc2ccccc23)cc1OC (stereo not shown) [Compound 4, l'-[2-(3,4-dimethoxyphenyl)-2-hydroxyethyl]-(2-oxo-3,4-dihydro-2H-1,3-benzoxazine-4-spiro-4'-piperidine)]",95.0 mmHg,> 1000 mg/kg
"COc1ccc([C@@H](O)[C@H](C)N2CCC3(CC2)OC(=O)Nc2ccccc23)cc1OC (relative stereo) [Compound 26, erythro-l'-[2-(3,4-dimethoxyphenyl)-2-hydroxy-1-methylethyl]-(2-oxo-3,4-dihydro-2H-1,3-benzo-xazine-4-spiro-4'-piperidine)]",66 mmHg,
"CN1C(=O)Nc2ccccc2C12CCN(CC(O)c1ccccc1)CC2 (stereo not shown) [Compound 11, l'-(2-phenyl-2-hydroxyethyl)-(3-methyl-3,4-dihydro-2(lH)-quinazolinone-4-spiro-4'-piperidine)]",47.5 mmHg,200 mg/kg
"COc1ccc([C@H](O)[C@H](C)N2CCC3(CC2)OC(=O)Nc2ccccc23)cc1OC (relative stereo) [Compound 25, threo-l'-[2-(3,4-dimethoxyphenyl)-2-hydroxy-1-methylethyl]-(2-oxo-3,4-dihydro-2H-1,3-benzoxazine-4-spiro-4'-piperidine)]",90 mmHg,
"O=C1Nc2ccc(Cl)cc2C2(CCN(CC(O)c3ccccc3)CC2)O1 (stereo not shown) [Compound 6, l'-(2-phenyl-2-hydroxyethyl)-(6-chloro-2-oxo-3,4-dihydro-2H-1,3-benzoxazine-4-spiro-4'-piperidine)]",66.3 mmHg,
COc1cc([C@H](O)[C@H](C)N2CCC3(CC2)OC(=O)Nc2ccccc23)cc(OC)c1OC (relative stereo) [Compound 28],70 mmHg,
"O=C1Nc2ccc(Cl)cc2C2(CCN(CC(O)c3ccc(Cl)cc3)CC2)O1 (stereo not shown) [Compound 8, l'-[2-(4-chlorophenyl)-2-hydroxyethyl]-(6-chloro-2-oxo-3,4-dihydro-2H-1,3-benzoxazine-4-spiro-4'-piperidine)]",67.5 mmHg,> 300 mg/kg
O=C1Nc2ccccc2C2(CCN(CC(O)c3ccc(Cl)cc3)CC2)O1 (stereo not shown) [Compound 9],43.7 mmHg,> 300 mg/kg
"COc1ccc(C(O)CN2CCC3(CC2)c2ccccc2NC(=O)N3C)cc1OC (stereo not shown) [Compound 12, l'-[2-(3,4-dimethoxyphenyl)-2-hydroxyethyl]-[3-methyl-3,4-dihydro-2(1H)-quinazolinone-4-spiro-4'-piperidine]]",35.0 mmHg,100 to 300 mg/kg
CN1C(=O)Nc2ccccc2C12CCN(CC(O)c1ccc(Cl)cc1)CC2 (stereo not shown) [Compound 10],20.0 mmHg,
"COc1cc(OC)c([C@@H](O)[C@H](C)N2CCC3(CC2)OC(=O)Nc2ccccc23)cc1OC (relative stereo) [Compound 31, erythro-l'-[2-(3,4,6-trimethoxyphenyl)-2-hydroxy-1-methylethyl]-(2-oxo-3,4-dihydro-2H-1,3-benzo-xazine-4-spiro-4'-piperidine)]",75 mmHg,
"O=C1Nc2ccccc2C2(CCN(CC(O)c3ccccc3)CC2)O1 (stereo not shown) [Compound 2, l'-(2-phenyl-2-hydroxyethyl)-(2-oxo-3,4-dihydro-2H-1,3-benzoxazine-4-spiro-4'-piperidine)]",46.3 mmHg,> 300 mg/kg
